Laboratory results published in patent US11896601B2, “Composition for prevention or treatment of allergic disease including inotodiol compound as active ingredient” (CARBOEXPERT INC., priority 2018, dated 2024).

Columns and labels:
[1] = tested on: CD4^+ T cells expressing DO11.00 TCR; test: Adoptive transfer of CFSE-stained DO11.10 TCR CD4+ T cells, ovalbumin-induced division (flow cytometry); format: in vivo, mouse; conditions: BALB/C mice; oral once a day for four days; inotodiol 20 mg/kg, ethanol extract 320 mg/kg, imatinib 10 mg/kg; five days after ovalbumin injection; FIG. 4(B)
Description: (§1) In order to examine the effect of an inotodiol compound or a chaga mushroom extract containing an inotodiol compound on CD4^+ T cell activity regulation, analysis of expression level of cytokine produced by Th2 CD4^+ T cell and adoptive transfer experiments using CD4^+ TCR transgenic T cells that express DO11.00 TCR, i.e., the ovalbumin-derived peptide specific T cell receptor (TCR), were performed.
Experiments to measure a degree of ovalbumin-derived peptide specific T cell immune response from an animal experiment were performed as follows. Cells were isolated from the lymph nodes of transgenic mice expressing DO11.10TCR. The isolated cells were fluorescence-stained with carboxyfluorescein succinimidyl ester (CFSE), and 2×10^6 cells were injected intravenously into BALB/C mice. Cells were injected intraperitoneally with ovalbumin (50 μg) and alum to induce division of CD4^+ T cells expressing DOII.00 TCR. Oral administration of 20 mg/kg of the inotodiol compound, 320 mg/kg of the chaga mushroom ethanol extract, 10 mg/kg of dexamethasone, 10 mg/kg of imatinib, or 20 mg/kg of the cholesterol was performed once a day for four days starting from one day after ovalbumin injection. After five days of ovalbumin injection, the cells were isolated from BALB/C lymph nodes, stained with anti-CD4 antibody and anti-DO11.10 antibody, and measured CFSF fluorescence intensity of the CD4^+ T cell expressing DOII.00 TCR using flow cytometry to determine the cell division degree. Then, the number of cells was measured. Here, the CFSF fluorescence intensity decreased as the cell division increases.

[2] = tested on: mast cell degranulation (MCPT-1); test: Passive systemic anaphylaxis: MCPT-1 in blood; format: in vivo, mouse; conditions: passive systemic anaphylaxis (anti-DNP-IgE, DNP-BSA i.v.); oral once a day for 3 days; inotodiol 20, ethanol extract 320, cholesterol 20, dexamethasone 10, imatinib 20 mg/kg; FIG. 5(B)
Description: (§2) On the third day after oral administration, 3 μg of anti-dinitrophenol (DNP)-IgE was intravenously injected, and after 24 hours, mast cell degranulation was induced by intravenous injection of 80 μg of DNP-conjugated bovine serum albumin (BSA). The rectal temperature of mice induced mast cell degranulation was measured, and the amount of MCPT-1 in the blood was analyzed.

[3] = tested on: food allergy-induced mouse model; test: Stool observation (diarrhea score) in ovalbumin food allergy mouse model; format: in vivo; conditions: ovalbumin food allergy BALB/C mice; oral daily; inotodiol, dexamethasone, cholesterol 20 mg/kg; extract and fractions 320 mg/kg; score 0-4 (Table 4); FIG. 1(C)
Description: (§3) To prepare allergy mouse models, 5-week-old male BALB/C mice were used. Food allergy models were prepared using ovalbumin of chicken as an allergy-inducing material (allergen).
(§4) For immunization of the mice, 20 μg of ovalbumin was mixed with 2 mg of alum, and the mixture was intraperitoneally injected to the mice two times every two weeks. Food allergy induction was induced by performing the second immunization injection and two weeks thereafter, 50 mg of ovalbumin was orally administered thereto five times every three days to cause an allergic response. […] Here, as a positive control, a mice group was used to which dexamethasone was administered every day. 50 mg of ovalbumin alone or the chaga mushroom extract, the fraction, or the inotodiol compound was lastly administered thereto, followed by observation on symptoms caused by allergy one hour thereafter.

[4] = tested on: food allergy-induced mouse model; test: Anaphylaxis symptom score in ovalbumin food allergy mouse model; format: in vivo; conditions: ovalbumin food allergy BALB/C mice; oral daily; inotodiol, dexamethasone, cholesterol 20 mg/kg; extract and fractions 320 mg/kg; score 0-4 (Table 3); FIG. 1(B)
Description: as §3, §4

[5] = tested on: egg white protein-specific IgE; test: Serum IgE concentration by ELISA, food allergy mouse model; format: in vivo; conditions: ovalbumin food allergy BALB/C mice, serum one day after last administration, FIG. 3(A)
Description: as §4

[6] = tested on: eosinophils in small intestine; test: Eosinophil infiltration in small intestine (H&E staining), food allergy mouse model; format: in vivo; conditions: ovalbumin food allergy BALB/C mice; H&E stained small intestine sections; FIG. 2(A)
Description: as §3, §4
The mice of each experimental group in Experimental Example 1 were anesthetized and cut the abdomen. Then, the small intestine was removed, fixed with formalin, treated with paraffin, permeated with paraffin, and microsectioned using microtome, thereby obtaining tissue sections. The obtained small intestine sections were stained with hematoxylin and eosin (H&E) to observe eosinophil cells.

[7] = tested on: mast cell protease-1 (MCPT-1); test: Serum MCPT-1 concentration by ELISA, food allergy mouse model; format: in vivo; conditions: ovalbumin food allergy BALB/C mice, serum one day after last administration, FIG. 3(B)
Description: as §4

mast cell degranulation = test: Passive systemic anaphylaxis: rectal temperature; format: in vivo, mouse; conditions: passive systemic anaphylaxis (anti-DNP-IgE, DNP-BSA i.v.); oral once a day for 3 days; inotodiol 20 mg/kg, ethanol extract 320 mg/kg; FIG. 5(A)
Description: as §2

[8] = tested on: mast cells in small intestine; test: Number of mast cells in small intestine (toluidine staining), food allergy mouse model; format: in vivo; conditions: ovalbumin food allergy BALB/C mice; toluidine stained small intestine sections; FIG. 2(B)
Description: as §3, §4

[9] = tested on: cytokine produced by Th2 CD4^+ T cells (IL-5, IL-13, IFN-γ); test: Cytokine production by mesenteric lymph node cells of treated food allergy mice (ELISA); format: in vivo, mouse; conditions: mLN cells of treated food allergy mice cultured three days with 100 μg/mL ovalbumin (OVA); FIG. 4(A)
Description: as §1
For the expression of cytokine, a sample was treated in the same manner as in Experimental Example 1, and the cells were isolated from the mesenteric lymph node (mLN) of mice of each group after one day. At this time, a group treated with 10 mg/kg of dexamethasone, a group treated with 20 mg/kg of imatinib (Gleevec), which is used as a mast cell […] therapeutic agent, and a group treated with 20 mg/kg of cholesterol that is similar in structure to the inotodiol compound were added. The isolated cells were dispensed into wells of a 96-well plate at a rate of 1×10^6 cells/well. RPMI complete medium (containing 10% fetal bovine serum (FBS), penicillin, streptomycin, and glutamine) containing ovalbumin or RPMI complete medium containing 100 μg/mL of ovalbumin was inoculated and culture for three days under a condition of 37° C. and 5% CO2. […]

| SMILES | CFSE fluorescence intensity of CD4+ T cell expressing DO11.00 TCR (cell division degree) [1] | number of CD4+ T cells expressing DO11.00 TCR [1] | concentration of MCPT-1 in the blood after induced mast cell degranulation [2] | diarrhea symptom score (stool symptom score) [3] | anaphylaxis score [4] | concentration of egg white protein-specific IgE in serum [5] | infiltration of eosinophils in the small intestine (number of stained eosinophil cells) [6] | concentration of MCPT-1 in serum [7] | rectal temperature after induced mast cell degranulation (mast cell degranulation) | number of mast cells in the small intestine [8] | amount of IL-5, IL-13, and IFN-γ (cytokine expression by Th2 CD4+ T cells) [9] |
| --- | --- | --- | --- | --- | --- | --- | --- | --- | --- | --- | --- |
| Cc1ccc(NC(=O)c2ccc(CN3CCN(C)CC3)cc2)cc1Nc1nccc(-c2cccnc2)n1 [Imat., imatinib] | no difference in the CFSE fluorescence intensity and the number of cells, as compared with the unimmune group | no difference in the CFSE fluorescence intensity and the number of cells, as compared with the unimmune group | level of increase in concentration of MCPT-1 was significantly decreased | – | – | – | – | – | – | – | – |
| CC(C)=CC[C@@H](O)[C@@H](C)[C@H]1CC[C@@]2(C)C3=C(CC[C@]12C)[C@@]1(C)CC[C@H](O)C(C)(C)[C@@H]1CC3 [Inotodiol, inotodiol] | – | significantly increased number of CD4^+T cells | level of increase in concentration of MCPT-1 was significantly decreased | lower than that of the food allergy-induced group | lower anaphylaxis score than the food allergy-induced group | no substantial change in the concentration of IgE | decreased infiltration of eosinophils | decreased significantly | did not decrease the rectal temperature | decreased number of mast cells | not substantially different from the expression amount of IL-5, IL-13, and IFN-γ |
| CC(C)CCC[C@@H](C)[C@H]1CC[C@H]2[C@@H]3CC=C4C[C@@H](O)CC[C@]4(C)[C@H]3CC[C@]12C [cholesterol, reference compound] | – | – | MCPT-1 did not decrease | – | – | – | little decrease in the number of eosinophils and mast cells | – | – | little decrease in the number of eosinophils and mast cells | – |
